From PubChem BioAssay AID2060505 (Molecular Pharmacology Branch, DTP, NCI, 2025)

System: 633275-114-R-J1-PDC complex spheroids, viability
Assay: Anticancer human tumor 633275-114-R-J1-PDC patient-derived endometrial adenocarcinoma cell line growth inhibition [GQUAD]
Conditions: for IC50: curve of first compound; for viability, T/C: stronger effect = lower value
Method in brief: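 Multi-cell-type spheroids of tumor cells with HUVEC and mesenchymal stem cells, treated with drug combinations. Concentrations descend in half-log steps from near clinical Cmax, or from 10 microM where Cmax is unknown; viability read-out.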

[1] = second compound 0.0316 µM, first compound 0.0316 µM
[2] = second compound 0.0316 µM, first compound 0.1 µM
[3] = second compound 0.0316 µM, first compound 0.316 µM
[4] = second compound 0.0316 µM, first compound 1 µM
[5] = second compound 0.0316 µM, first compound 3.16 µM
[6] = second compound 0.0316 µM, first compound 10 µM
[7] = second compound 0.1 µM, first compound 0.0316 µM
[8] = second compound 0.1 µM, first compound 0.1 µM
[9] = second compound 0.1 µM, first compound 0.316 µM
[10] = second compound 0.1 µM, first compound 1 µM
[11] = second compound 0.1 µM, first compound 3.16 µM
[12] = second compound 0.1 µM, first compound 10 µM
[13] = second compound 0.316 µM, first compound 0.0316 µM
[14] = second compound 0.316 µM, first compound 0.1 µM
[15] = second compound 0.316 µM, first compound 0.316 µM
[16] = second compound 0.316 µM, first compound 1 µM
[17] = second compound 0.316 µM, first compound 3.16 µM
[18] = second compound 0.316 µM, first compound 10 µM
[19] = second compound 1 µM, first compound 0.0316 µM
[20] = second compound 1 µM, first compound 0.1 µM
[21] = second compound 1 µM, first compound 0.316 µM
[22] = second compound 1 µM, first compound 1 µM
[23] = second compound 1 µM, first compound 3.16 µM
[24] = second compound 1 µM, first compound 10 µM
[25] = second compound 3.16 µM, first compound 0.0316 µM
[26] = second compound 3.16 µM, first compound 0.1 µM
[27] = second compound 3.16 µM, first compound 0.316 µM
[28] = second compound 3.16 µM, first compound 1 µM
[29] = second compound 3.16 µM, first compound 3.16 µM
[30] = second compound 3.16 µM, first compound 10 µM
[31] = second compound 10 µM, first compound 0.0316 µM
[32] = second compound 10 µM, first compound 0.1 µM
[33] = second compound 10 µM, first compound 0.316 µM
[34] = second compound 10 µM, first compound 1 µM
[35] = second compound 10 µM, first compound 3.16 µM
[36] = second compound 10 µM, first compound 10 µM
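Also: spheroids exposed to the agents for seven days.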
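For viability, T/C in this document: percent of DMSO vehicle control viability which is 100%.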

Compound `C=CCn1c(=O)c2cnc(Nc3ccc(N4CCN(C)CC4)cc3)nc2n1-c1cccc(C(C)(C)O)n1` + Cc1[nH]c2ccc(F)cc2c1-c1nc2c3cccnc3c3ncccc3c2[nH]1 has an IC50 (second compound 0.0316 µM) of 0.645 µM, an IC50 (second compound 0.1 µM) of 0.72 µM and an IC50 (second compound 0.316 µM) of 0.623 µM. It also gave an IC50 (second compound 1 µM) of 0.577 µM, an IC50 (second compound 3.16 µM) of 0.361 µM and an IC50 (second compound 10 µM) of 0.165 µM. It also gave a viability, T/C [1] of 105%, a viability, T/C [2] of 100% and a viability, T/C [3] of 73.3%. The viability, T/C [4] was 35.1%, the viability, T/C [5] was 22.2% and the viability, T/C [6] was 16.2%. The viability, T/C [7] was 103%, the viability, T/C [8] was 97.9% and the viability, T/C [9] was 73.9%. For the same compound, the viability, T/C [10] was 40.4%, the viability, T/C [11] was 22.6% and the viability, T/C [12] was 17.4%. The viability, T/C [13] was 101%, the viability, T/C [14] was 93.9% and the viability, T/C [15] was 67.9%. It also gave a viability, T/C [16] of 37.2%, a viability, T/C [17] of 21.8% and a viability, T/C [18] of 16%. The viability, T/C [19] was 87.1%, the viability, T/C [20] was 97.8% and the viability, T/C [21] was 67.3%. It also gave a viability, T/C [22] of 33.3%, a viability, T/C [23] of 19.3% and a viability, T/C [24] of 15.6%. The viability, T/C [25] was 69.3%, the viability, T/C [26] was 69.4% and the viability, T/C [27] was 51.5%. The viability, T/C [28] was 29.8%, the viability, T/C [29] was 18.6% and the viability, T/C [30] was 14.8%. It also gave a viability, T/C [31] of 58.2%, a viability, T/C [32] of 55% and a viability, T/C [33] of 43.4%. The viability, T/C [34] was 26.2%, the viability, T/C [35] was 17.9% and the viability, T/C [36] was 16.6%.
`C=CCn1c(=O)c2cnc(Nc3ccc(N4CCN(C)CC4)cc3)nc2n1-c1cccc(C(C)(C)O)n1` + Cc1cnc(CNC(=O)c2c(=O)c3ccc(N4CCCN(C)CC4)nc3n3c2sc2ccccc23)cn1 was tested, and the IC50 (second compound 0.0316 µM) was 0.129 µM, the IC50 (second compound 0.1 µM) was less than 0.0316 µM and the IC50 (second compound 0.316 µM) was less than 0.0316 µM. It also gave an IC50 (second compound 1 µM) of less than 0.0316 µM, an IC50 (second compound 3.16 µM) of less than 0.0316 µM and an IC50 (second compound 10 µM) of less than 0.0316 µM. For the same compound, the viability, T/C [1] was 55.6%, the viability, T/C [2] was 56% and the viability, T/C [3] was 33.9%. For the same compound, the viability, T/C [4] was 23.6%, the viability, T/C [5] was 19.9% and the viability, T/C [6] was 16.5%. It also gave a viability, T/C [7] of 48.1%, a viability, T/C [8] of 40% and a viability, T/C [9] of 28.9%. The viability, T/C [10] was 22.7%, the viability, T/C [11] was 21.2% and the viability, T/C [12] was 15.2%. For the same compound, the viability, T/C [13] was 43.8%, the viability, T/C [14] was 39.8% and the viability, T/C [15] was 24.6%. The viability, T/C [16] was 21.1%, the viability, T/C [17] was 20.7% and the viability, T/C [18] was 16.5%. It also gave a viability, T/C [19] of 34.5%, a viability, T/C [20] of 32.2% and a viability, T/C [21] of 22.4%. For the same compound, the viability, T/C [22] was 19.9%, the viability, T/C [23] was 20.7% and the viability, T/C [24] was 17.3%. For the same compound, the viability, T/C [25] was 31.4%, the viability, T/C [26] was 26.6% and the viability, T/C [27] was 18.5%. For the same compound, the viability, T/C [28] was 22.5%, the viability, T/C [29] was 25% and the viability, T/C [30] was 18.3%. The viability, T/C [31] was 26.8%, the viability, T/C [32] was 20.5% and the viability, T/C [33] was 16.8%. For the same compound, the viability, T/C [34] was 17.8%, the viability, T/C [35] was 22.4% and the viability, T/C [36] was 19.5%.
With `CC(C)(O)C1CCC(Nc2ccc3ncc(-c4cccc(C(F)(F)F)c4)n3n2)CC1` (stereo not drawn) + Cc1[nH]c2ccc(F)cc2c1-c1nc2c3cccnc3c3ncccc3c2[nH]1 the IC50 (second compound 0.0316 µM) was 1.97 µM, the IC50 (second compound 0.1 µM) was 2.01 µM and the IC50 (second compound 0.316 µM) was 1.78 µM. For the same compound, the IC50 (second compound 1 µM) was 1.91 µM, the IC50 (second compound 3.16 µM) was 0.947 µM and the IC50 (second compound 10 µM) was 1.07 µM. It also gave a viability, T/C [1] of 108%, a viability, T/C [2] of 103% and a viability, T/C [3] of 112%. The viability, T/C [4] was 75.2%, the viability, T/C [5] was 32.2% and the viability, T/C [6] was 32.6%. For the same compound, the viability, T/C [7] was 98.7%, the viability, T/C [8] was 103% and the viability, T/C [9] was 101%. The viability, T/C [10] was 79.7%, the viability, T/C [11] was 28.9% and the viability, T/C [12] was 32.5%. For the same compound, the viability, T/C [13] was 95.5%, the viability, T/C [14] was 99.1% and the viability, T/C [15] was 90.5%. For the same compound, the viability, T/C [16] was 70.2%, the viability, T/C [17] was 27.5% and the viability, T/C [18] was 32.6%. It also gave a viability, T/C [19] of 89.6%, a viability, T/C [20] of 95.6% and a viability, T/C [21] of 86.8%. The viability, T/C [22] was 74.2%, the viability, T/C [23] was 31% and the viability, T/C [24] was 27%. The viability, T/C [25] was 72.6%, the viability, T/C [26] was 75.5% and the viability, T/C [27] was 69.9%. The viability, T/C [28] was 49.3%, the viability, T/C [29] was 27.4% and the viability, T/C [30] was 26.1%. It also gave a viability, T/C [31] of 65.2%, a viability, T/C [32] of 69.8% and a viability, T/C [33] of 62.6%. The viability, T/C [34] was 52.1%, the viability, T/C [35] was 24.1% and the viability, T/C [36] was 21.5%.
Compound `O=C(NO)c1cnc(N2CCN(S(=O)(=O)c3ccc4ccccc4c3)CC2)nc1` + Cc1cnc(CNC(=O)c2c(=O)c3ccc(N4CCCN(C)CC4)nc3n3c2sc2ccccc23)cn1 has an IC50 (second compound 0.0316 µM) of 0.109 µM, an IC50 (second compound 0.1 µM) of less than 0.0316 µM and an IC50 (second compound 0.316 µM) of less than 0.0316 µM. It also gave an IC50 (second compound 1 µM) of less than 0.0316 µM, an IC50 (second compound 3.16 µM) of less than 0.0316 µM and an IC50 (second compound 10 µM) of less than 0.0316 µM. The viability, T/C [1] was 54%, the viability, T/C [2] was 53.5% and the viability, T/C [3] was 33.2%. The viability, T/C [4] was 15.1%, the viability, T/C [5] was 12.3% and the viability, T/C [6] was 4.21%. For the same compound, the viability, T/C [7] was 48.3%, the viability, T/C [8] was 42.8% and the viability, T/C [9] was 31%. It also gave a viability, T/C [10] of 16.3%, a viability, T/C [11] of 10.7% and a viability, T/C [12] of 4.01%. The viability, T/C [13] was 40.8%, the viability, T/C [14] was 42.9% and the viability, T/C [15] was 23.7%. It also gave a viability, T/C [16] of 14.1%, a viability, T/C [17] of 7.68% and a viability, T/C [18] of 1.96%. It also gave a viability, T/C [19] of 40.4%, a viability, T/C [20] of 36.3% and a viability, T/C [21] of 22.4%. For the same compound, the viability, T/C [22] was 7.98%, the viability, T/C [23] was 3.91% and the viability, T/C [24] was 0.11%. It also gave a viability, T/C [25] of 37.8%, a viability, T/C [26] of 34.1% and a viability, T/C [27] of 20.5%. It also gave a viability, T/C [28] of 0.25%, a viability, T/C [29] of 0.07% and a viability, T/C [30] of 0.11%. The viability, T/C [31] was 31.9%, the viability, T/C [32] was 27.6% and the viability, T/C [33] was 21.5%. The viability, T/C [34] was 0.17%, the viability, T/C [35] was 0.14% and the viability, T/C [36] was 0.18%.
